Measurements: BindingDB's records for doi:10.1016/s0968-0896(00)00026-2 (Alcon Research, 2000)
pKi: −log10 of the molar value. Where a name gives a salt, the structure may show the parent alone.

target: Carbonic anhydrase 2 (Homo sapiens, UniProt P00918); experiment: In vitro binding of inhibitor to hCA-II; conditions: not given
Description: Inhibitor binding to CA II was determined using a fluorescence competition assay. Displacement of dansylamide and binding of the inhibitor was determined by measuring and comparing the average fluorescence intensities of the treated versus control reactions. Binding constants were estimated from a Dixon plot of the data (reciprocal of the average fluorescence intensity versus inhibitor concentration)

SMILES	pKi
NS(=O)(=O)c1cc2c(s1)S(=O)(=O)N(c1ccc(N3CCOCC3)cc1)C(CN1CCOCC1)=C2 [Compound 17n1]	9.92
COCCCN1C(Cn2ccnc2)=Cc2cc(S(N)(=O)=O)sc2S1(=O)=O [Compound 17i10]	9.92
C#CCNCC1=Cc2cc(S(N)(=O)=O)sc2S(=O)(=O)N1C(C)C [Compound 17d8]	9.33
COc1ccc(N2C(CN3CCOCC3)=Cc3cc(S(N)(=O)=O)sc3S2(=O)=O)cc1OC [Compound 17m1]	10.10
C=CCN1C(CN2CCOCC2)=Cc2cc(S(N)(=O)=O)sc2S1(=O)=O [3-(morpholin-4-ylmethyl)-1,1-dioxo-2-(prop-2-en-1-yl)-2H-1,7,2-thieno[3,2-e][1,2]thiazine-6-sulfonamide]	9.80
C#CCNCC1=Cc2cc(S(N)(=O)=O)sc2S(=O)(=O)N1c1cccc(O)c1 [2-(3-hydroxyphenyl)-1,1-dioxo-3-[(prop-2-yn-1-ylamino)methyl]-2H-1,7,2-thieno[3,2-e][1,2]thiazine-6-sulfonamide hydrochloride]	9.80
NS(=O)(=O)c1cc2c(s1)S(=O)(=O)N(CC1CC1)C(CN1CCOCC1)=C2 [2-(cyclopropylmethyl)-3-(morpholin-4-ylmethyl)-1,1-dioxo-2H-1,7,2-thieno[3,2-e][1,2]thiazine-6-sulfonamide hydrochloride]	9.52
CCCN1C(CN2CCOCC2)=Cc2cc(S(N)(=O)=O)sc2S1(=O)=O [Compound 17c1]	9.57
COCCCN1C(CN2CCOCC2)=Cc2cc(S(N)(=O)=O)sc2S1(=O)=O [Compound 17i1]	9.60
COc1cccc(N2C(CNCCO)=Cc3cc(S(N)(=O)=O)sc3S2(=O)=O)c1 [3-{[(2-hydroxyethyl)amino]methyl}-2-(3-methoxyphenyl)-1,1-dioxo-2H-1,7,2-thieno[3,2-e][1,2]thiazine-6-sulfonamide hydrochloride]	9.96
CCN1C(CN(CCO)CCO)=Cc2cc(S(N)(=O)=O)sc2S1(=O)=O [Compound 17b4]	9.48
CCCN1C(CN(CCOC)CCOC)=Cc2cc(S(N)(=O)=O)sc2S1(=O)=O [3-{[bis(2-methoxyethyl)amino]methyl}-1,1-dioxo-2-propyl-2H-1,7,2-thieno[3,2-e][1,2]thiazine-6-sulfonamide hydrochloride]	9.82
COCCCN1C(CNC2CC2)=Cc2cc(S(N)(=O)=O)sc2S1(=O)=O [3-[(cyclopropylamino)methyl]-2-(3-methoxypropyl)-1,1-dioxo-2H-1,7,2-thieno[3,2-e][1,2]thiazine-6-sulfonamide hydrochloride]	9.59
COCCN1C(CN2CCOCC2)=Cc2cc(S(N)(=O)=O)sc2S1(=O)=O [Compound 17h1]	9.66
NS(=O)(=O)c1cc2c(s1)S(=O)(=O)N(CCCO)C(CN1CCOCC1)=C2 [Compound 17o1]	9.70
NS(=O)(=O)c1cc2c(s1)S(=O)(=O)N(C1CCCCC1)C(CN1CCOCC1)=C2 [Compound 17g1]	9.51
COCCN(CCOC)CC1=Cc2cc(S(N)(=O)=O)sc2S(=O)(=O)N1CCOC [Compound 17h2]	9.68
COc1ccc(CN2C(CN3CCOCC3)=Cc3cc(S(N)(=O)=O)sc3S2(=O)=O)cc1 [Compound 17j1]	9.96
CC(C)N1C(CN2CCOCC2)=Cc2cc(S(N)(=O)=O)sc2S1(=O)=O [Compound 17d1]	9.48
C#CCNCC1=Cc2cc(S(N)(=O)=O)sc2S(=O)(=O)N1CCC [1,1-dioxo-3-[(prop-2-yn-1-ylamino)methyl]-2-propyl-2H-1,7,2-thieno[3,2-e][1,2]thiazine-6-sulfonamide]	10.00
CN1C(CN2CCOCC2)=Cc2sc(S(N)(=O)=O)cc2S1(=O)=O [Compound 25]	9.68

same assay, conditions: pH 7.4; 37 °C

SMILES	pKi
COCCN(C)CC1=Cc2cc(S(N)(=O)=O)sc2S(=O)(=O)N1C [3-[N-(2-Methoxyethyl)-N-methylamino]methyl]-2-methyl-2H-thieno[3,2-e]-1,2-thiazine-6-sulfonamide 1,1-dioxide]	9.82
CCN1C(CN2CCOCC2)=Cc2cc(S(N)(=O)=O)sc2S1(=O)=O [2-Ethyl-3-[(4-morpholinyl)methyl]-2H-thieno[3,2-e]-1,2-thiazine-6-sulfonamide 1,1-dioxide hydrochloride]	9.68
CC(=O)N1CCN(CCN2C=Cc3cc(S(N)(=O)=O)sc3S2(=O)=O)CC1 [Compound 5c]	9.60
C=CCN(CCOC)CC1=Cc2cc(S(N)(=O)=O)sc2S(=O)(=O)N1C [Compound 17a7]	10.00
NS(=O)(=O)c1cc2c(s1)S(=O)(=O)N(C/C=C/CN1CCOCC1)C=C2 [2-[(2E)-4-(morpholin-4-yl)but-2-en-1-yl]-1,1-dioxo-2H-1,7,2-thieno[3,2-e][1,2]thiazine-6-sulfonamide hydrochloride]	9.62
COCCCN(CCOC)CC1=Cc2cc(S(N)(=O)=O)sc2S(=O)(=O)N1C [3-{[(2-methoxyethyl)(3-methoxypropyl)amino]methyl}-2-methyl-1,1-dioxo-2H-1,7,2-thieno[3,2-e][1,2]thiazine-6-sulfonamide hydrochloride]	10.10
CCCNCCN1C=Cc2cc(S(N)(=O)=O)sc2S1(=O)=O [2-[2-(Propylamino)ethyl]-2H-thieno[3,2-e]-1,2-thiazine-6-sulfonamide 1,1-dioxide hydrochloride]	9.28
COc1cccc(N2C(CN3CCOCC3)=Cc3cc(S(N)(=O)=O)sc3S2(=O)=O)c1 [2-(3-Methoxyphenyl)-3-[(4-morpholinyl)methyl]-2H-thieno-[3,2-e]-1,2-thiazine-6-sulfonamide 1,1-dioxide]	9.82
NS(=O)(=O)c1cc2c(s1)S(=O)(=O)N(CCN1CCOCC1)C=C2 [Compound 5b]	9.49
CN1C(CN2CCOCC2)=Cc2cc(S(N)(=O)=O)sc2S1(=O)=O [2-methyl-3-(morpholin-4-ylmethyl)-1,1-dioxo-2H-1,7,2-thieno[3,2-e][1,2]thiazine-6-sulfonamide hydrochloride]	9.59
CCN1C(CN(CCOC)CCOC)=Cc2cc(S(N)(=O)=O)sc2S1(=O)=O [2-Ethyl-3-[[bis(2-methoxyethyl)amino]methyl]-2H-thieno-[3,2-e]-1,2-thiazine-6-sulfonamide 1,1-dioxide hydrochloride]	9.68
COCCN(CCOC)CCN1C=Cc2cc(S(N)(=O)=O)sc2S1(=O)=O [2-{2-[bis(2-methoxyethyl)amino]ethyl}-1,1-dioxo-2H-1,7,2-thieno[3,2-e][1,2]thiazine-6-sulfonamide hydrochloride]	9.47
